# Experimental data reported in PMC7889164, “Efficient expression of a cnidarian peptide-gated ion channel in mammalian cells” (Channels, 2021).
# Read-outs that look alike come from different tables or passages of the source.
# Legend:
# [1] = tested on: HyNaC2/3/5; test: Whole-cell patch clamp, current density, COS-7 cells expressing HyNaC2/3/5 (native or codon-optimized); assay type: cell-based, Hydra magnipapillata; settings: for current density: holding potential −70 mV, mean ± SD
# Experimental: (§1) Cells were grown at 37 °C in a humidified atmosphere with 5% CO2. HEK 293 T and COS-7 cells were maintained as an adherent monolayer in Dulbecco’s modified Eagle’s medium supplemented with 10% FBS and 2 mM L-glutamine. Cells were passaged every 2–3 days.
# (§2) Holding potential was −70 mV.
# (§3) Statistical significance was defined as p < 0.05.
# [2] = tested on: HyNaC2/3/5; test: Whole-cell patch clamp, current density, HEK 293 cells expressing HyNaC2/3/5 (native or codon-optimized); assay type: cell-based, Hydra magnipapillata; settings: for current density: holding potential −70 mV, mean ± SD
# Experimental: as §1, §2, §3
# [3] = tested on: HyNaCs; settings: ref [1–3]; cited from earlier work
# Text: Electrophysiological properties of HyNaCs have been successfully characterized in Xenopus laevis oocytes [[1–3],[6]]. While expression in oocytes typically results in large current amplitudes of the foreign ion channel, expression in mammalian expression systems is better suited to study, for example, trafficking and regulation of an ion channel. In this study, we, therefore, expressed HyNaC2/3/5 ...
# [4] = tested on: HyNaC2/3/5; settings: Xenopus oocytes, ref [3], cited from earlier work
# [5] = tested on: HyNaC2/3/5 (HA-tagged or untagged subunits); test: Whole-cell current density of codon-optimized HyNaC2/3/5 with or without C-terminal HA-tags; settings: RFamide II 1 µM, mean ± S.E.M.
# Experimental: The tags were separated from the coding sequence by a flexible linker ([sequence]). Fusion was performed in a two-step PCR protocol. For HyNaC2, the forward primer was 5’-[sequence]-3’, and the reverse primers were 5’-[sequence]-3’ and 5’-[sequence]-3’. For HyNaC3, the forward primer was 5’-[sequence]-3’, and the reverse primers were 5’-[sequence]-3’ and 5’-[sequence]-3’. And for HyNaC5, the forward primer was 5’-[sequence]-3’, and the reverse primers were 5’-[sequence]-3’ and 5’-[sequence]-3’. Constructs were cloned into pcDNA3.1(-) using BamHI and BbsI (HyNaC2) or BamHI and KpnI (HyNaC3 and HyNaC5). The sequences of the constructs were confirmed by sequencing of the full coding sequence (Eurofins Genomics).
# Codon optimization of HyNaC2, HyNaC3, and HyNaC5 to Homo sapiens codon usage preferences was performed by BioCat GmbH (Heidelberg, Germany). The cDNA was synthesized with a C-terminal flexible linker ([sequence]) followed by three HA-tags and cloned into pcDNA3.1(-) using the same restriction sites as above. To create the codon-optimized constructs without linkers and tags, PCR was performed to insert an additional restriction site of either BbsI (HyNaC2) or KpnI (HyNaC3 and HyNaC5) between the end of the HyNaC coding sequence and the start of the linker. The resulting constructs were digested with the respective restriction enzymes and cloned into pcDNA3.1(-). The successful removal of linkers and tags was confirmed by sequencing (Eurofins Genomics).
# Cells were transfected with 0.6 µg each of HyNaC2, HyNaC3, and HyNaC5 plus 0.2 µg of GFP per 35 mm dish using calcium phosphate transfection. Approximately 48 h after transfection, the culture dish with attached cells was mounted on the stage of an inverted phase-contrast microscope (IX71, Olympus). The recording chamber was perfused with the following bath solution (in mM): NaCl 128, KCl 5.4, HEPES 10, glucose 5.5, MgCl2 1, CaCl2 2; pH was adjusted with NaOH to 7.4 at RT (22–25 °C).
# Patch-clamp experiments were performed in the whole-cell configuration, using an Axon-200B amplifier (Molecular Devices; San Jose, CA, USA) and an Axon Digidata 1440 A acquisition system controlled by the Clampex 10.0 software (Molecular Devices). Signals were low pass filtered at 1 kHz and digitized at 4 kHz. Micropipettes (4–6 MΩ) were prepared from borosilicate glass capillaries with a micropipette puller (DMZ-Universal Electrode Puller; Zeitz Instruments, Martinsried, Germany) and filled with an intracellular solution containing (in mM): NaCl 10, KCl 121, HEPES 10, EGTA 5, MgCl2 2. Holding potential was −70 mV. Capacitance and series resistances were compensated electronically at 80% and digital data were stored in a compatible PC for off-line analysis using Clampfit 10.0 software (Molecular Devices).
# Electrophysiological data were analyzed offline using Clampfit 10.0 (Molecular Devices). Current density was obtained by dividing the maximal current amplitude (pA) by cell capacitance (pF). Data are presented as mean ± S.D., except for data in Figure 5, which are shown as mean ± S.E.M. The concentration–response curve for RFamide-II and codon-optimized HyNaCs was fitted to a Hill function: I=Imin+ Imax−Imin/1 + X/EC50^H
# Statistical analysis was done using an unpaired t-test to compare two conditions and a one-way ANOVA (GraphPad Prism 6.0) for more than two conditions. Statistical significance was defined as p < 0.05.
# [6] = tested on: HyNaC2/3/5; test: Concentration-response curve (whole-cell patch clamp), codon-optimized HyNaC2/3/5 in HEK cells; assay type: cell-based, Hydra magnipapillata; settings: codon-optimized HyNaC2/3/5, HEK cells, −70 mV, pH 7.4, RT, mean ± S.D., n = 8, read-out: apparent affinity (EC50, Hill fit)
# Text: as §2
# where I is the current, [X] is the peptide concentration, Imin and Imax are the […] currents, respectively, EC50 is the concentration at which 50% of the maximal current is obtained, and H is the Hill coefficient (GraphPad Prism 6.0).
# [7] = tested on: HyNaC2/3/5; test: Ca^2+ imaging (Fura-2), HEK 293 cells expressing HyNaC2/3/5; assay type: cell-based, Hydra magnipapillata; settings: 1 µM Hydra-RFamide II, Fura-2 340/380 nm, 6 experiments, 2 transfections, ionomycin 1 µM positive control
# Experimental: For Ca^2+ imaging, cells were grown on coverslips and transfected as described for electrophysiological recordings. Approximately 48 h after transfection, cells were loaded with 2 µM of Fura-2-AM (Molecular Probes) for 30 min at 37 °C. Subsequently, the coverslips were mounted in a cell chamber and perfused with bath solution. Fura-2 was excited at 340/380 nm and the emission was recorded between 470 and 550 nm on an inverted microscope (IX71, Olympus, Chromaphor) using a sensicam CCD camera (PCO imaging). Acquisition and data analysis were performed using Till Vision real-time imaging software (Till Photonics). At the end of each experiment, a bath solution containing 1 µM ionomycin was used as a positive control.
# as §3
substance,measurement,setting,value
pQWLGGRFamide [Hydra-RFamide I],current amplitude compared with Hydra-RFamide II,"[1]; codon-optimized HyNaC2/3/5, COS-7 cells, text: 1 µM Hydra-RFamide I (Figure 3B legend: 10 µM), n = 10, p = 0.87 (unpaired t-test)",comparable current amplitudes
same,current density,"[1]; native HyNaC2/3/5, COS-7 cells, 10 µM RFamide I, pH 7.4, RT (22–25 °C), n = 12, p < 0.001 vs HEK",5 ± 2 pA/pF
same,type of current elicited,"[2]; native HyNaC2/3/5, HEK cells, 10 µM RFamide I",sustained inward currents
same,current density,"[2]; native HyNaC2/3/5, HEK cells, 10 µM RFamide I, pH 7.4, RT (22–25 °C), n = 12",42 ± 10 pA/pF
same,activation of HyNaCs,[3],directly activated
same,response in oocytes,[4]; 10 µM Hydra-RFamide I,maximal response
"pQWFNGRFamide [Hydra-RFamide II, neuropeptide of the Hydra nervous system]",current density,"[5]; HyNaC2 carried the HA-tag, n = 7–8, p < 0.05 vs untagged",49 ± 9 pA/pF
same,current density,"[5]; HyNaC3 carried the HA-tag, n = 7–8, p < 0.05 vs untagged",57 ± 8 pA/pF
same,current density,"[5]; HyNaC5 carried the HA-tag, n = 7–8, p < 0.05 vs untagged",50 ± 9 pA/pF
same,current density,"[5]; all subunits carrying an HA-tag, n = 7, p < 0.0001",22 ± 7 pA/pF
same,current density,"[5]; no subunit carried the tag, n = 7–8",84 ± 9 pA/pF
same,type of current elicited,"[1]; codon-optimized HyNaC2/3/5, COS-7 cells, 1 µM Hydra-RFamide II",sustained inward currents
same,current density,"[1]; codon-optimized HyNaC2/3/5, COS-7 cells, 1 µM Hydra-RFamide II, pH 7.4, RT, n = 10, p < 0.001 vs native",17 ± 9 pA/pF
same,current amplitude compared with Hydra-RFamide I,"[1]; codon-optimized HyNaC2/3/5, COS-7 cells, text: 10 µM Hydra-RFamide II (Figure 3B legend: 1 µM), n = 10, p = 0.87 (unpaired t-test)",comparable current amplitudes
same,current density,"[1]; native HyNaC2/3/5, COS-7 cells, text: 1 µM Hydra-RFamide II (Figure 3 legend: native trace 10 µM RFamide I), n = 12",2 ± 3 pA/pF
same,EC50,[6],140 ± 30 nM
same,type of current elicited,"[2]; codon-optimized HyNaC2/3/5, HEK cells, 1 µM Hydra-RFamide II",sustained inward currents
same,current density,"[2]; codon-optimized HyNaC2/3/5, HEK cells, 1 µM Hydra-RFamide II, pH 7.4, RT, n = 15, p < 0.001 vs native",113 ± 9 pA/pF
same,intracellular Ca^2+ signals,"[7]; HEK 293 cells expressing codon-optimized HyNaC2/3/5, n = 48 cells, p < 0.001 vs native",robust intracellular Ca^2+ signals
same,intracellular Ca^2+ increase,"[7]; HEK 293 cells expressing native HyNaC2/3/5, n = 36 cells",hardly increased intracellular Ca^2+ above background
same,activation of HyNaCs,[3],directly activated
same,response in oocytes,[4]; 1 µM Hydra-RFamide II,maximal response
